Reference: patent US8999942B2, “Polyol modified aminoglycoside-lipid conjugates” (University of Manitoba, priority 2010, dated 2015)

Legend:
S. aureus ATCC 29213 = assay: MIC, broth macrodilution (CLSI), S. aureus ATCC 29213; type: cell-based, Staphylococcus aureus
Method: (§1) All compounds were tested against American Type Culture Collection (ATCC) reference strains as well as clinical isolates from the Canadian Intensive Care Unit (CAN-ICU) study (Zhanel, et al., 2008). […] Antibacterial activity against Gram-positive and Gram-negative microorganisms was performed via broth macrodilution tests using CLSI methodology (Clinical and Laboratory Standards Institute, 2006). The minimum inhibitory concentration (MIC) in μg/mL of the aminoglycoside-derived amphiphilic polycarbamates and polyethers were determined using established methods (Clinical and Laboratory Standards Institute, 2006) and are shown in Tables 1 and 2, respectively.

[1] = test system: methicillin-resistant Staphylococcus aureus (MRSA) ATCC 33592; assay: MIC, broth macrodilution (CLSI), MRSA ATCC 33592; type: cell-based; settings: MRSA, methicillin-resistant S. aureus ATCC 33592
Method: as §1

[2] = test system: S. epidermidis ATCC 14990; assay: MIC, broth macrodilution (CLSI), S. epidermidis; type: cell-based, Staphylococcus epidermidis; settings: footnote ATCC 1490
Method: as §1

[3] = test system: methicillin-resistant Staphylococcus epidermidis (MRSE) CAN-ICU 61589; assay: MIC, broth macrodilution (CLSI), MRSE; type: cell-based; settings: methicillin-resistant S. epidermidis, footnote (ATCC 14990)
Method: as §1

[4] = test system: Streptococcus pneumoniae ATCC 49619; assay: MIC, broth macrodilution (CLSI), S. pneumoniae ATCC 49619; type: cell-based
Method: as §1

E. coli ATCC 25922 = assay: MIC, broth macrodilution (CLSI), E. coli ATCC 25922; type: cell-based
Method: as §1

[5] = test system: E. coli (Gentamicin-resistant) CAN-ICU 61714; assay: MIC, broth macrodilution (CLSI), gentamicin-resistant E. coli; type: cell-based; settings: footnote ATCC 6174 (gentamicin resistant)
Method: as §1

[6] = test system: E. coli (Amikacin MIC 32) CAN-ICU 63074; assay: MIC, broth macrodilution (CLSI), E. coli CAN-ICU 63074; type: cell-based
Method: as §1

[7] = test system: Pseudomonas aeruginosa ATCC 27853; assay: MIC, broth macrodilution (CLSI), P. aeruginosa ATCC 27853; type: cell-based
Method: as §1

[8] = test system: P. aeruginosa (Gent-R) CAN-ICU 62308; assay: MIC, broth macrodilution (CLSI), P. aeruginosa CAN-ICU 62308; type: cell-based, Pseudomonas aeruginosa
Method: as §1

[9] = test system: Stenotrophomonas maltophilia (CAN-ICU 62585); assay: MIC, broth macrodilution (CLSI), S. maltophilia; type: cell-based; settings: S. maltophilia, footnote CAN-ICU 62584
Method: as §1

[10] = test system: Acinetobacter baumanni (CAN-ICU 63169); assay: MIC, broth macrodilution (CLSI), A. baumannii; type: cell-based; settings: A. baumannii CAN-ICU 63169
Method: as §1

S. pneumoniae ATCC 13883 = assay: MIC, broth macrodilution (CLSI), S. pneumoniae ATCC 13883; type: cell-based
Method: as §1

## CN(C)c1ccc(NC(=O)OCC2OC(OC3C(OC(=O)Nc4ccc(N(C)C)cc4)C(N)CC(N)C3OC3OC(CN)C(OC(=O)Nc4ccc(N(C)C)cc4)C(OC(=O)Nc4ccc(N(C)C)cc4)C3N)C(OC(=O)Nc3ccc(N(C)C)cc3)C2OC2OC(CN)C(OC(=O)Nc3ccc(N(C)C)cc3)C(OC(=O)Nc3ccc(N(C)C)cc3)C2N)cc1.O=C(O)C(F)(F)F.O=C(O)C(F)(F)F.O=C(O)C(F)(F)F.O=C(O)C(F)(F)F.O=C(O)C(F)(F)F.O=C(O)C(F)(F)F.O=C(O)C(F)(F)F.O=C(O)C(F)(F)F.O=C(O)C(F)(F)F.O=C(O)C(F)(F)F.O=C(O)C(F)(F)F.O=C(O)C(F)(F)F.O=C(O)C(F)(F)F (centres unmarked) [Compound 4]
S. aureus ATCC 29213
  Minimal Inhibitory Concentration (MIC): 16 mg/L
[1]
  Minimal Inhibitory Concentration (MIC): 16 mg/L
[2]
  Minimal Inhibitory Concentration (MIC): 8 mg/L
[3]
  Minimal Inhibitory Concentration (MIC): 8 mg/L
[4]
  Minimal Inhibitory Concentration (MIC): 32 mg/L
E. coli ATCC 25922
  Minimal Inhibitory Concentration (MIC): 128 mg/L
[5]
  Minimal Inhibitory Concentration (MIC): 128 mg/L
[6]
  Minimal Inhibitory Concentration (MIC): 64 mg/L
[7]
  Minimal Inhibitory Concentration (MIC): 128 mg/L
[8]
  Minimal Inhibitory Concentration (MIC): 128 mg/L
[9]
  Minimal Inhibitory Concentration (MIC): 256 mg/L
[10]
  Minimal Inhibitory Concentration (MIC): >256 mg/L
S. pneumoniae ATCC 13883
  Minimal Inhibitory Concentration (MIC): >256 mg/L

## NCC1OC(OC2C(N)CC(N)C(OC3OC(COC(=O)Nc4ccccc4)C(OC(=O)Nc4ccccc4)C(N)C3OC(=O)Nc3ccccc3)C2OC(=O)Nc2ccccc2)C(OC(=O)Nc2ccccc2)C(OC(=O)Nc2ccccc2)C1OC(=O)Nc1ccccc1.O=C(O)C(F)(F)F.O=C(O)C(F)(F)F.O=C(O)C(F)(F)F.O=C(O)C(F)(F)F (centres unmarked) [Compound 5]
S. aureus ATCC 29213
  Minimal Inhibitory Concentration (MIC): 32 mg/L
[1]
  Minimal Inhibitory Concentration (MIC): 32 mg/L
[2]
  Minimal Inhibitory Concentration (MIC): 4 mg/L
[3]
  Minimal Inhibitory Concentration (MIC): 8 mg/L
[4]
  Minimal Inhibitory Concentration (MIC): 64 mg/L
E. coli ATCC 25922
  Minimal Inhibitory Concentration (MIC): >256 mg/L
[5]
  Minimal Inhibitory Concentration (MIC): >256 mg/L
[6]
  Minimal Inhibitory Concentration (MIC): >256 mg/L
[7]
  Minimal Inhibitory Concentration (MIC): >256 mg/L
[8]
  Minimal Inhibitory Concentration (MIC): >256 mg/L
[9]
  Minimal Inhibitory Concentration (MIC): >256 mg/L
[10]
  Minimal Inhibitory Concentration (MIC): >256 mg/L
S. pneumoniae ATCC 13883
  Minimal Inhibitory Concentration (MIC): >256 mg/L

## CCCCCCNC(=O)OCC1OC(OC2C(N)CC(N)C(OC3OC(CN)C(OC(=O)NCCCCCC)C(OC(=O)NCCCCCC)C3OC(=O)NCCCCCC)C2OC(=O)NCCCCCC)C(OC(=O)NCCCCCC)C(N)C1OC(=O)NCCCCCC.O=C(O)C(F)(F)F.O=C(O)C(F)(F)F.O=C(O)C(F)(F)F.O=C(O)C(F)(F)F (centres unmarked) [Compound 6]
S. aureus ATCC 29213
  Minimal Inhibitory Concentration (MIC): 32 mg/L
[1]
  Minimal Inhibitory Concentration (MIC): 64 mg/L
[2]
  Minimal Inhibitory Concentration (MIC): 16 mg/L
[3]
  Minimal Inhibitory Concentration (MIC): 32 mg/L
[4]
  Minimal Inhibitory Concentration (MIC): 128 mg/L
E. coli ATCC 25922
  Minimal Inhibitory Concentration (MIC): 128 mg/L
[5]
  Minimal Inhibitory Concentration (MIC): 64 mg/L
[6]
  Minimal Inhibitory Concentration (MIC): 64 mg/L
[7]
  Minimal Inhibitory Concentration (MIC): 128 mg/L
[8]
  Minimal Inhibitory Concentration (MIC): 32 mg/L
[9]
  Minimal Inhibitory Concentration (MIC): >256 mg/L
[10]
  Minimal Inhibitory Concentration (MIC): >256 mg/L
S. pneumoniae ATCC 13883
  Minimal Inhibitory Concentration (MIC): >256 mg/L

## CN(C)c1ccc(NC(=O)OCC2OC(OC3C(N)CC(N)C(OC4OC(CN)C(OC(=O)Nc5ccc(N(C)C)cc5)C(OC(=O)Nc5ccc(N(C)C)cc5)C4OC(=O)Nc4ccc(N(C)C)cc4)C3OC(=O)Nc3ccc(N(C)C)cc3)C(OC(=O)Nc3ccc(N(C)C)cc3)C(N)C2OC(=O)Nc2ccc(N(C)C)cc2)cc1.O=C(O)C(F)(F)F.O=C(O)C(F)(F)F.O=C(O)C(F)(F)F.O=C(O)C(F)(F)F.O=C(O)C(F)(F)F.O=C(O)C(F)(F)F.O=C(O)C(F)(F)F.O=C(O)C(F)(F)F.O=C(O)C(F)(F)F.O=C(O)C(F)(F)F.O=C(O)C(F)(F)F (centres unmarked) [Compound 7]
S. aureus ATCC 29213
  Minimal Inhibitory Concentration (MIC): 16 mg/L
[1]
  Minimal Inhibitory Concentration (MIC): 32 mg/L
[2]
  Minimal Inhibitory Concentration (MIC): 16 mg/L
[3]
  Minimal Inhibitory Concentration (MIC): 32 mg/L
[4]
  Minimal Inhibitory Concentration (MIC): >256 mg/L
E. coli ATCC 25922
  Minimal Inhibitory Concentration (MIC): 256 mg/L
[5]
  Minimal Inhibitory Concentration (MIC): 256 mg/L
[6]
  Minimal Inhibitory Concentration (MIC): 256 mg/L
[7]
  Minimal Inhibitory Concentration (MIC): >256 mg/L
[8]
  Minimal Inhibitory Concentration (MIC): 256 mg/L
[9]
  Minimal Inhibitory Concentration (MIC): >256 mg/L
[10]
  Minimal Inhibitory Concentration (MIC): >256 mg/L
S. pneumoniae ATCC 13883
  Minimal Inhibitory Concentration (MIC): >256 mg/L

## NCCC(OC(=O)Nc1ccccc1)C(=O)NC1CC(N)C(OC2OC(CN)C(OC(=O)Nc3ccccc3)C(OC(=O)Nc3ccccc3)C2OC(=O)Nc2ccccc2)C(OC(=O)Nc2ccccc2)C1OC1OC(COC(=O)Nc2ccccc2)C(OC(=O)Nc2ccccc2)C(N)C1OC(=O)Nc1ccccc1.O=C(O)C(F)(F)F.O=C(O)C(F)(F)F.O=C(O)C(F)(F)F.O=C(O)C(F)(F)F (centres unmarked) [Compound 8]
S. aureus ATCC 29213
  Minimal Inhibitory Concentration (MIC): 8 mg/L
[1]
  Minimal Inhibitory Concentration (MIC): 16 mg/L
[2]
  Minimal Inhibitory Concentration (MIC): 2 mg/L
[3]
  Minimal Inhibitory Concentration (MIC): 2 mg/L
[4]
  Minimal Inhibitory Concentration (MIC): 32 mg/L
E. coli ATCC 25922
  Minimal Inhibitory Concentration (MIC): 256 mg/L
[5]
  Minimal Inhibitory Concentration (MIC): 256 mg/L
[6]
  Minimal Inhibitory Concentration (MIC): 256 mg/L
[7]
  Minimal Inhibitory Concentration (MIC): >256 mg/L
[8]
  Minimal Inhibitory Concentration (MIC): 256 mg/L
[9]
  Minimal Inhibitory Concentration (MIC): 128 mg/L
[10]
  Minimal Inhibitory Concentration (MIC): 256 mg/L
S. pneumoniae ATCC 13883
  Minimal Inhibitory Concentration (MIC): 256 mg/L

## NCC1OC(OC2C(N)CC(N)C(OC(=O)Nc3ccccc3)C2OC(=O)Nc2ccccc2)C(N)C(OC(=O)Nc2ccccc2)C1OC(=O)Nc1ccccc1.O=C(O)C(F)(F)F.O=C(O)C(F)(F)F.O=C(O)C(F)(F)F.O=C(O)C(F)(F)F (centres unmarked) [Compound 10]
S. aureus ATCC 29213
  Minimal Inhibitory Concentration (MIC): 16 mg/L
[1]
  Minimal Inhibitory Concentration (MIC): 16 mg/L
[2]
  Minimal Inhibitory Concentration (MIC): 8 mg/L
[3]
  Minimal Inhibitory Concentration (MIC): 8 mg/L
[4]
  Minimal Inhibitory Concentration (MIC): >256 mg/L
E. coli ATCC 25922
  Minimal Inhibitory Concentration (MIC): 32 mg/L
[5]
  Minimal Inhibitory Concentration (MIC): 32 mg/L
[6]
  Minimal Inhibitory Concentration (MIC): 32 mg/L
[7]
  Minimal Inhibitory Concentration (MIC): 128 mg/L
[8]
  Minimal Inhibitory Concentration (MIC): 128 mg/L
[9]
  Minimal Inhibitory Concentration (MIC): 64 mg/L
[10]
  Minimal Inhibitory Concentration (MIC): 256 mg/L
S. pneumoniae ATCC 13883
  Minimal Inhibitory Concentration (MIC): 64 mg/L

## NCC1OC(OC2C(N)CC(N)C(OCc3ccc(Cl)cc3)C2OC2OC(COCc3ccc(Cl)cc3)C(OC3OC(CN)C(OCc4ccc(Cl)cc4)C(OCc4ccc(Cl)cc4)C3N)C2OCc2ccc(Cl)cc2)C(N)C(OCc2ccc(Cl)cc2)C1OCc1ccc(Cl)cc1.O=C(O)C(F)(F)F.O=C(O)C(F)(F)F.O=C(O)C(F)(F)F.O=C(O)C(F)(F)F.O=C(O)C(F)(F)F.O=C(O)C(F)(F)F (centres unmarked) [Compound 12]
S. aureus ATCC 29213
  Minimal Inhibitory Concentration (MIC): 64 mg/L
[1]
  Minimal Inhibitory Concentration (MIC): 64 mg/L
[2]
  Minimal Inhibitory Concentration (MIC): 32 mg/L
[3]
  Minimal Inhibitory Concentration (MIC): 64 mg/L
[4]
  Minimal Inhibitory Concentration (MIC): 128 mg/L
E. coli ATCC 25922
  Minimal Inhibitory Concentration (MIC): 128 mg/L
[5]
  Minimal Inhibitory Concentration (MIC): >128 mg/L
[6]
  Minimal Inhibitory Concentration (MIC): 64 mg/L
[7]
  Minimal Inhibitory Concentration (MIC): >128 mg/L
[8]
  Minimal Inhibitory Concentration (MIC): >128 mg/L
[9]
  Minimal Inhibitory Concentration (MIC): >128 mg/L
[10]
  Minimal Inhibitory Concentration (MIC): >128 mg/L
S. pneumoniae ATCC 13883
  Minimal Inhibitory Concentration (MIC): 128 mg/L

## CC(C)(C)c1ccc(COCC2OC(OC3C(OCc4ccc(C(C)(C)C)cc4)C(N)CC(N)C3OC3OC(CN)C(OCc4ccc(C(C)(C)C)cc4)C(OCc4ccc(C(C)(C)C)cc4)C3N)C(OCc3ccc(C(C)(C)C)cc3)C2OC2OC(CN)C(OCc3ccc(C(C)(C)C)cc3)C(OCc3ccc(C(C)(C)C)cc3)C2N)cc1.O=C(O)C(F)(F)F.O=C(O)C(F)(F)F.O=C(O)C(F)(F)F.O=C(O)C(F)(F)F.O=C(O)C(F)(F)F.O=C(O)C(F)(F)F (centres unmarked) [Compound 13]
S. aureus ATCC 29213
  Minimal Inhibitory Concentration (MIC): 128 mg/L
[1]
  Minimal Inhibitory Concentration (MIC): 128 mg/L
[2]
  Minimal Inhibitory Concentration (MIC): 64 mg/L
[3]
  Minimal Inhibitory Concentration (MIC): 64 mg/L
[4]
  Minimal Inhibitory Concentration (MIC): 256 mg/L
E. coli ATCC 25922
  Minimal Inhibitory Concentration (MIC): 128 mg/L
[5]
  Minimal Inhibitory Concentration (MIC): 128 mg/L
[6]
  Minimal Inhibitory Concentration (MIC): 128 mg/L
[7]
  Minimal Inhibitory Concentration (MIC): 256 mg/L
[8]
  Minimal Inhibitory Concentration (MIC): 128 mg/L
[9]
  Minimal Inhibitory Concentration (MIC): >128 mg/L
[10]
  Minimal Inhibitory Concentration (MIC): >128 mg/L
S. pneumoniae ATCC 13883
  Minimal Inhibitory Concentration (MIC): >128 mg/L
